pIC50: −log10 of the molar value.
Target: T1, Diphosphomevalonate decarboxylase (Streptococcus pneumoniae serotype 2 (strain D39 / NCTC 7466), UniProt A0A0H2ZN59)
T1 sequence (A0A0H2ZN59 whole entry): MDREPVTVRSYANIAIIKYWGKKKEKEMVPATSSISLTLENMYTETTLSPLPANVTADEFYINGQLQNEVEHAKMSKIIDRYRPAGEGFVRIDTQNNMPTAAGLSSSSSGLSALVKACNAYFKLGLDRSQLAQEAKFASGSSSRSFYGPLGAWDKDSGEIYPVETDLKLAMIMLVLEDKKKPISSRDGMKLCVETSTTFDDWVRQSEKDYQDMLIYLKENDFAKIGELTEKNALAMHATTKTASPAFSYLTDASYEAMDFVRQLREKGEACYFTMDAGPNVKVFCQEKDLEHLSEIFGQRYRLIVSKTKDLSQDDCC
Assay: diphosphomevalonate decarboxylase inhibition dose curves – biochemical, PK/LDH-coupled NADH fluorescence, hexokinase coupling counter-screen, dose response (AID 550)

Compound | pIC50
Cc1cc(=O)[nH]c2ccccc12 | < 2.00
O=C(Nc1ccc2nc(-c3ccco3)c(-c3ccco3)nc2c1)N1CCCCCC1 | 4.33
CCc1cc2c(=O)c(-c3nc4ccccc4n3C)c(C)oc2c(CN2CCN(C)CC2)c1O | 4.31
CN(C)CCSc1nnc(-c2ccccc2)o1 | < 2.00
COc1ccc2[nH]c(=O)c(CN(CC3CCCO3)C(=O)Nc3ccccc3)cc2c1 (configuration not stated) | 4.09
CCC(=O)N(Cc1cc2cc(OC)ccc2[nH]c1=O)c1cc(C)ccc1C | 4.05
O=C(C1CCCCC1)N1CCC(c2nc3c(nnn3Cc3ccccc3Cl)c(=O)[nH]2)CC1 | < 2.00
O=C(O)c1c(-c2ccccc2)c2oc3ccccc3c2[nH]c1=O | 4.77
CCc1cc2c(=O)c(-c3nc4ccccc4[nH]3)coc2cc1OC(=O)N1CCOCC1 | 3.72
Cn1cc(O)nc1NC(=O)C12CC3CC(CC(C3)C1)C2 | < 2.00
CCOC(=O)c1c(C)[nH]c(C(=O)COC(=O)c2ccccc2NC(=O)c2ccco2)c1C | 4.20
CCN(CC)C(=O)c1sc2[nH]c(-c3ccccn3)nc(=O)c2c1C | 4.52
COc1cc(C2C3=C(CC(C)(C)CC3=O)N=C(C)C2C#N)cc(OC)c1O (configuration not stated) | < 2.00
Cc1cc(=O)[nH]c(NC(N)=Nc2cccc3ccccc23)n1 | < 2.00
CCN(CC)CCOC(=O)c1ccc(NC=C2C(=O)CC(C)(C)CC2=O)cc1 | < 2.00
COc1cccc(Cn2c(=S)[nH]c3ccc(N4CCOCC4)cc3c2=O)c1 | 4.44

Compound | pIC50
O=S(=O)(Nc1ccc(C(F)(F)F)cc1)c1c[nH]cn1 | < 2.00
Cc1ccc(C2C3=C(CC(C)(C)CC3=O)N(CCN3CCOCC3)C3=C2C(=O)CC(C)(C)C3)cc1 | < 2.00
CC1=C(C(=O)OCC2CCCO2)C(c2ccncc2)C2C(=O)CCCC2=N1 (configuration not stated) | 4.57
CCN(CC)c1nc2ccccc2n2cnnc12 | < 2.00
CCOC(=O)c1cc2c(cn1)[nH]c1ccccc12 | 4.31
CC(C)/N=c1/cc2n(-c3ccc(Cl)cc3)c3ccccc3nc-2cc1Nc1ccc(Cl)cc1 | 5.54
CN(C)C(=O)Nc1cnc2ccccc2c1 [1,1-dimethyl-3-(3-quinolinyl)urea] | < 2.00
CC(C)c1ccc(-c2nc3c([nH]2)c(=O)n(C)c(=O)n3C)cc1 [1,3-dimethyl-8-(4-propan-2-ylphenyl)-7H-purine-2,6-dione] | 4.66
CN1CCN(CCNC(=O)c2cc3c(=O)n(C)c4ccccc4c3n2C)CC1 [1,5-dimethyl-N-[2-(4-methyl-1-piperazinyl)ethyl]-4-oxo-2-pyrrolo[3,2-c]quinolinecarboxamide] | 3.12
COc1cc2c(C#N)c(N3CCN(c4ccccc4OC)CC3)nc(N)c2c(N)n1 [1,8-diamino-6-methoxy-3-(4-(2-methoxyphenyl)piperazin-1-yl)-2,7-naphthyridine-4-carbonitrile] | < 2.00
Cc1nc2cc(NC(=O)NCc3ccco3)ccc2n1C [1-(1,2-dimethyl-5-benzimidazolyl)-3-(2-furanylmethyl)urea] | < 2.00
Nc1c(S(=O)(=O)c2cccs2)c2nc3ccccc3nc2n1Cc1ccc2c(c1)OCO2 [1-(1,3-benzodioxol-5-ylmethyl)-3-thiophen-2-ylsulfonyl-2-pyrrolo[3,2-b]quinoxalinamine] | 4.50
COc1ccc(-c2cc(C(F)(F)F)nc(SCCC(=O)N3CCN4CCCC4C3)n2)cc1 (configuration not stated) [1-(3,4,6,7,8,8a-hexahydro-1H-pyrrolo[1,2-a]pyrazin-2-yl)-3-[4-(4-methoxyphenyl)-6-(trifluoromethyl)pyrimidin-2-yl]sulfanyl-propan-1-one] | 3.42
CC(=O)c1cccc(NC(=O)Nc2cccnc2)c1 [1-(3-acetylphenyl)-3-(3-pyridinyl)urea] | < 2.00
Cc1cc(-c2ccccc2)nc(N2CCC(C(=O)NC(C)C)CC2)n1 [1-(4-Methyl-6-phenyl-pyrimidin-2-yl)-piperidine-4-carboxylic acid isopropylamide] | 4.16
CCOc1ccc(N2CC(C(=O)OC)CC2=O)cc1 (configuration not stated) [1-(4-ethoxyphenyl)-5-oxo-3-pyrrolidinecarboxylic acid methyl ester] | < 2.00

Source: BindingDB's records for doi:10.7270/Q2N014XN (Srmlsc, 2007)
